Laboratory results reported in ChEMBL document CHEMBL1156829 (Proc Natl Acad Sci U S A, 2008).

Columns and labels:
[1] = NOVARTIS: Cytotoxicity against human hepatocellular carcinoma cell line (Huh7); format: toxicity, cell-based, Huh-7; settings: Huh7 cells (hepatocellular carcinoma cell line)
Plasmodium falciparum [2] = test: NOVARTIS: Inhibition of Plasmodium falciparum 3D7 (drug-susceptible) proliferation in erythrocyte-based infection assay; format: functional, organism-based; settings: Plasmodium falciparum, 3D7
Plasmodium falciparum [3] = test: NOVARTIS: Inhibition of Plasmodium falciparum W2 (drug-resistant) proliferation in erythrocyte-based infection assay; format: functional, organism-based; settings: Plasmodium falciparum, W2; read-out: EC50

Row | SMILES | CC50 [1] [µM] | EC50 (Plasmodium falciparum [2]) [nM] | EC50 (Plasmodium falciparum [3]) [nM]
1 | C[n+]1ccc(C=Cc2ccccc2F)c2ccccc21 | 81.9 | 57.6 | 78.1
2 | S=C(NN=Cc1ccccn1)NC1CC2C=CC1C2 (stereo not drawn) | 44.3 | 38.5 | 44.8
3 | CCOC(=O)c1ccc(N(C(=O)Cc2c[nH]c3ccccc23)C(C(=O)NC2CCCCC2)c2cccc(OC)c2OC)cc1 (stereo not drawn) | > 100 | 54.2 | 104
4 | COc1cccc(NC(=O)Cn2c(C)c(C#N)c3ccccc32)c1 | > 100 | 79.6 | 104
5 | N#Cc1ccc(-c2cnc(N)c(-c3ccc(C(N)=O)cc3)n2)cc1 | > 100 | 60.3 | 99.8
6 | COc1cc(C2Nc3ccc4ccccc4c3C3=C2C(=O)CC(C)(C)C3)ccc1Oc1ccc([N+](=O)[O-])cc1C(F)(F)F (stereo not drawn) | > 100 | 285 | 95.8
7 | CC(C)(C)c1ccc(O)c(CNC2CCCCC2)c1 | 60.1 | 250 | 67.8
8 | COc1ccc(C2=C(Nc3ccc4oc5ccccc5c4c3)c3ccccc3C2=O)cc1 | > 100 | 142 | 100
9 | COC1=CC(C)=C[C@@H](C)[C@@H](O)[C@H](C)CC(C)=CC=C[C@H](OC)[C@@H](C(C)C(O)[C@H](C)[C@@]2(O)C[C@@H](O)[C@H](C)[C@@H](C(C)C)O2)OC1=O (stereo partly drawn) | > 10 | 1490 | 11.3
10 | COc1cccc(CN2CCN(C(c3ccccc3)c3ccccc3)CC2)c1O | 45.2 | 340 | 50.4
11 | CN(C)c1ccc(C=Cc2nc(=O)c3ccccc3o2)cc1 | > 100 | 95.9 | 96.1
12 | CC(=O)Nc1cc(C(=O)Nc2ccc(C3=NCCN3)cc2)ccc1C(=O)Nc1ccc(C2=NCCN2)cc1 | > 100 | 323 | 103
13 | CC(C)c1nc(N2CCN(C(=S)NCc3ccccc3)CC2)c(C#N)c2c1COC(C)(C)C2 | > 100 | 183 | 112
14 | COc1ccccc1N1CCN(Cc2cc(C(C)C)c(C)cc2O)CC1 | 77.5 | 623 | 85
15 | Cc1cc(Nc2ccc(Cl)c(Cl)c2)n2nc(C)nc2n1 | > 100 | 123 | 112
16 | COc1ccc(Cn2c(C)nc3cc(NC(=O)Nc4ccccc4)c(C)nc32)cc1 | > 100 | 373 | 110
17 | O=[N+]([O-])c1cccc(C(O)CNCc2ccc3c(c2)OCO3)c1 (stereo not drawn) | > 100 | 1010 | 111
18 | C=CCN1Cc2ccc(C(=O)NCc3ccccc3)cc2N=C1c1ccc(F)cc1 | > 12.6 | > 1250 | < 14.2
19 | CCCOC(=O)C1=C(C)NC2=C(C(=O)CC(c3ccc(OC)c(OC)c3)C2)C1c1cccc(C)c1 (stereo not drawn) | 31.9 | 91.3 | 35.9
20 | O=C(NCCCCNc1ccnc2cc(Cl)ccc12)c1ccccc1Cl | > 12 | 761 | < 13.7
21 | COC1=C(Nc2cccc(C(F)(F)F)c2)C(=O)c2ccccc2C1=O | > 100 | 263 | 114
22 | O=C(Nc1ccc(F)c(Cl)c1)c1c2c(nc3ccccc13)CCN(Cc1ccccc1)C2 | > 100 | 799 | 96.7

Row | SMILES | CC50 [1] [µM] | EC50 (Plasmodium falciparum [2]) [nM] | EC50 (Plasmodium falciparum [3]) [nM]
23 | CCN(CC)CCNc1ccnc2ccc([N+](=O)[O-])cc12 | > 100 | 89.8 | 115
24 | COC(=O)C1=C(C)NC2=C(C(=O)CC(c3ccc(OC)c(OC)c3)C2)C1c1cccc(Cl)c1Cl (stereo not drawn) | > 100 | 207 | 93.7
25 | COc1ccc(NC(=O)C2c3ccccc3C(=O)N(C3CCCC3)C2c2cccs2)cc1Cl (stereo not drawn) | > 100 | 128 | 107
26 | CN1C(=O)N(C)C2(c3ccccc3)NN3C(=NC12c1ccccc1)SC1=C3C(=O)c2ccccc2C1=O (stereo not drawn) | > 100 | 2830 | 95.5
27 | COC(=O)C1=C(C)NC2=C(C(=O)CC(c3ccccc3Cl)C2)C1c1ccc([N+](=O)[O-])cc1 (stereo not drawn) | > 100 | 114 | 105
28 | CCCOC(=O)C1=C(C)NC2=C(C(=O)CC(c3ccccc3)C2)C1c1ccc(Cl)cc1Cl (stereo not drawn) | > 100 | 484 | 109
29 | CCCC(=O)NC(C(=O)N1CCN(C(c2ccccc2)c2ccccc2)CC1)C(C)C (stereo not drawn) | > 10 | 387 | 10.9
30 | COc1cc(C2CC(=O)NC3=C2C(=O)CC(c2ccccc2Cl)C3)ccc1O (stereo not drawn) | > 100 | 815 | 109
31 | COC(=O)C1=C(C)NC2=C(C(=O)CC(c3ccc(Cl)cc3)C2)C1c1ccc(F)cc1 (stereo not drawn) | > 100 | 188 | 98.2
32 | CCOC(=O)c1ccc(NCc2c(C)[nH]c(C(=O)OCC)c2C)cc1 | > 100 | 238 | 97.7
33 | COCCNC(=O)c1ccc(OC2CCN(CC(c3ccccc3)c3ccccc3)CC2)c(OC)c1 | > 76.7 | 303 | 74.9
34 | O=[N+]([O-])c1ccc(S(=O)(=O)N2CCN(C(=S)NCCc3ccccc3)CC2)cc1 | > 100 | 97.2 | 97.1
35 | CCOC(=O)c1cccc(NC(=O)CC2C(=O)N(c3ccc(F)cc3)C(=O)N2CCC(C)C)c1 (stereo not drawn) | > 100 | 202 | 101
36 | O=C(NCc1ccco1)c1ccc(OC2CCN(CC3CCCCC3)CC2)c(Cl)c1 | 23.5 | 95.1 | 23.6
37 | CC(C)(C)CC(C)(C)Nc1c(-c2ccccc2OC(=O)C2CCCCC2)nc2ccccn12 | > 10 | 349 | 10.1
38 | O=[N+]([O-])c1ccc(S(=O)(=O)N2CCN(C(=S)NCC3CCCO3)CC2)cc1 (stereo not drawn) | > 100 | 136 | 101
39 | CCOC(=O)c1cnc2ccccc2c1Nc1ccc(OC)c(OC)c1 | 85.4 | 66.5 | 84.6
40 | Cc1ccn2c(NC(C)(C)CC(C)(C)C)c(-c3ccccc3OC(=O)c3cccc(Cl)c3)nc2c1 | > 10 | 424 | 9.89
41 | C[N+](C)(CCCC(=O)c1ccc(C(=O)CCC[N+](C)(C)Cc2ccccc2Cl)cc1)Cc1ccccc1Cl | > 100 | 21.3 | 113
42 | Cc1ccc(CN2CCc3nc(N4CCCCC4)sc3C2)s1 | > 10 | 14.1 | 10.5
43 | CC(=O)N(C1=C(N2CCCCC2)C(=O)c2ccccc2C1=O)c1ccc(F)cc1 | 33.3 | 155 | 34.5
44 | O=[N+]([O-])c1cc(C(F)(F)F)ccc1N1CCCN(C(=S)Nc2ccccc2)CC1 | > 100 | 87.8 | 102

Row | SMILES | CC50 [1] [µM] | EC50 (Plasmodium falciparum [2]) [nM] | EC50 (Plasmodium falciparum [3]) [nM]
45 | CCOC(=O)C1=C(C)NC2=C(C(=O)CC(c3ccc(OC)c(OC)c3)C2)C1c1ccc(Cl)c(Cl)c1 (stereo not drawn) | > 100 | 229 | 105
46 | CN(CCCNc1ccnc2cc(Cl)ccc12)C(=O)c1cc(C(F)(F)F)cc(C(F)(F)F)c1 | > 10 | 86.8 | < 10.4
47 | CCN1C(=O)N(CCC(C)C)C2(CCN(Cc3cc(Cl)ccc3O)CC2)C1=O | > 100 | 348 | 102
48 | CC(C)(C)CC(C)(C)Nc1c(-c2ccccc2OC(=O)c2ccc(Cl)cc2Cl)nc2ccccn12 | > 10 | 279 | 10.3
49 | CCOC(=O)C1=C(C)NC2=C(C(=O)C(C(=O)OCC)C(c3ccccc3OC)C2)C1c1ccc([N+](=O)[O-])cc1 (stereo not drawn) | > 100 | 114 | 102
50 | COCCNC(=S)N1CCN(S(=O)(=O)c2ccc([N+](=O)[O-])cc2)CC1 | > 100 | 176 | 101
51 | Cc1ccc(F)cc1NC(=O)c1cc(Cl)ccc1Nc1ccccc1 | > 100 | 191 | 115
52 | Oc1ccc(-c2ccccc2)cc1CNCCc1ccc(F)cc1 | > 10 | 691 | < 9.74
53 | CC(=O)Nc1ccc(NC2=C(N3CCCCC3)C(=O)c3ccccc3C2=O)cc1 | > 100 | 52.8 | 111
54 | O=C(Cc1cccs1)N1CCOc2c(cc(-c3csc4ccccc34)cc2OCCc2ccccn2)C1 | > 100 | 179 | 106
55 | Nc1cc(C(=O)Nc2cccc(C3=NCCN3)c2)ccc1C(=O)Nc1cccc(C2=NCCN2)c1 | > 100 | 199 | 110
56 | O=C1C2=C(Nc3ccccc3SC2c2ccc(OCc3ccccc3)cc2)c2ccccc21 (stereo not drawn) | > 100 | 479 | 103
57 | Cc1cccc2cc(CNC3CCOC(C)(C)C3)c(N3CCCC3)nc12 (stereo not drawn) | 39.1 | 21.4 | 39.7
58 | Cc1ccn2c(NC(C)(C)CC(C)(C)C)c(-c3ccccc3OC(=O)CCC3CCCC3)nc2c1 | > 10 | 1100 | < 10.2
59 | COc1ccccc1NC(=S)N1CCN(c2ccc([N+](=O)[O-])cc2)CC1 | > 100 | 577 | 113
60 | COc1ccc(C(OCCS(=O)(=O)CCO)(c2ccccc2)c2ccc(OC)cc2)cc1 | 51.6 | 70.3 | 48.9
61 | CCOc1ccccc1C1C(C#N)=C(SCC(=O)Nc2ccc(Cl)cc2)NC(C)=C1C(=O)Nc1ccccc1 (stereo not drawn) | > 100 | 352 | 107
62 | COc1ccccc1NC(=O)N(Cc1ccccc1)C(C)c1nc2ccccc2c(=O)n1-c1cc(C)ccc1C (stereo not drawn) | > 6.06 | 451 | < 6.88
63 | CCN1C(=S)NC2c3cc(C)ccc3OC13CCCC23 (stereo not drawn) | > 100 | 164 | 111
64 | N#Cc1ccc(NC(=O)CCCC(=O)O)cc1 | > 10 | 2080 | < 10.6
65 | Cc1cc(-c2ccc(O)c(CN3CCCCC3CO)c2)c2ccccc2n1 (stereo not drawn) | 59.1 | 361 | 57.7
66 | CCCCOc1ccc(NC2=C(N3CCCCC3)C(=O)c3ccccc3C2=O)cc1 | 15.5 | 9.86 | 17.2
